For series [1] the following is noted: DSC, FIG. 5. On the procedure: DSC measurements were carried out using STA 6000 (Simultaneous Thermal Analyzer TG with DSC/DTA).
TGA measurements were carried out using STA 6000 (Simultaneous Thermal Analyzer TG with DSC/DTA).
On the technique in general: In DSC, transitions show as peaks or steps in heat flow.

The conditions of series [2]: crystals from 95% ethanol, Example 3.
Protocol: Mixture of dichloroacetic acid (V) (1.28 g, 1.2894 mmol) and tromethamine (DI) (1.2 g) are dissolved in 10 ml of 95% ethanol.
The next series deals with MCF7 cells. Description: zebrafish xenotransplantation tumor model (zebrafish model of hepatocarcinoma), oral dosing with feed for 14 days. In kind it is in vivo. The procedure: The study was carried out in group sizes of 6 adult fish. Fish were induced with tumor through xenotransplantation of log phase cells. Groups were treated with compounds through oral dosing and treated groups were compared to vehicle treated, to quantify activity against tumor.
Fishes were anesthetized using cold water of 15° C. and 3 ul of 1×10^6 log phase MCF7 cells were injected into the peritoneum to induce tumor. Fish were transferred to housing tanks and maintained for 21 days until tumor reached maximum growth phase.
The stock compound is prepared by dissolving appropriate amount of compound in 1 ml of Phosphate Buffered Saline (PBS—8 g of NaCl, 0.2 g of KCl, 1.44 g of Na2HPO4 and 0.24 g of KH2PO4 is made to 1 litre and pH adjusted to 7.4.) containing 20% DMSO and 30% fish feed grade coconut oil and stored at 4° C. until use.
Fishes were dosed by mixing the compound with feed for 14 days. A per day dosing weight of compound was dissolved in 3 ul of compound dissolving medium and added to a pellet. The pellets were dried at 70 degrees to remove moisture prior to adding compound and post addition and absorption of compound the pellets were transferred to 4° C.
Statistical comparisons were made using GraphPad. Student's t test with a 95% confidence interval was performed using a two-way ANOVA at an alpha=0.05 (95% confidence interval). Significance is denoted with asterisks: ns not significant, *P<0.05, **P<0.01, ***P<0.001, ****P<0.0001.

[3] abbreviates: 5 mM concentration, 14 days treatment, FIG. 8.

Usually mortality stands for the share of the test organisms that died. A higher mortality goes with fewer survivors. Turning to “dichloroacetate tromethamine [Formula (VII)]”, the thermally stable upto in series [1] is at most 150 °C. Moreover, in series [2], the water solubility entry is “water soluble”. Besides, in the series on MCF7 cells (1 mM concentration, FIG. 7), the mortality result is on record as “No mortality”, the relative neovascularization reversal was at most 90% and the tumor reversal is listed as at most 60%. For the same molecule, in the series with MCF7 cells (setting [3]), the mortality entry is “No mortality”. In the series on MCF7 cells (5 mM concentration, FIG. 8), the neovascularization reversal entry was “complete” and the relative tumor reversal entry is “up to 90%”.
With `O=C([O-])C(Cl)Cl.[Na+]` [Formula (VI), sodium dichloroacetate, reference compound], in the series with MCF7 cells (1 mM concentration, FIG. 7), the mortality came to 70%, the relative neovascularization reversal came out at 60% and the tumor reversal came to 40%. The mortality with MCF7 cells (setting [3]) was 90%. Further, in the series with MCF7 cells (5 mM concentration, FIG. 8), the neovascularization reversal turned out to be 70% and the relative tumor reversal is listed as 50%.

Values taken from US10927067B2, “Organic crystalline salt of haloacetic acid” (priority 2016, dated 2021).
